# According to US20250367182A1, “METHOD FOR INDUCING IN-SITU REGENERATION OF MAMMAL AND USE THEREOF” (INSTITUTE OF ZOOLOGY, CHINESE ACADEMY OF SCIENCES, priority 2022, published 2025):
# “Also recorded” adds a separate entry of the source. Read-outs that look alike come from different tables or passages of the source.
# What was measured:
# [1] = test system: 2 mm diameter mouse ear hole; assay: 2 mm ear hole trauma mouse model (ear hole closure); design: species or system C57BL/6 mice; conditions: in vivo
# [2] = test system: protein translation process
# [3] = test system: bleomycin-induced lung fibrosis injury; assay: bleomycin-induced chronic injury model of lung fibrosis; assay type: in vivo, C57B1/6 mice
# [4] = test system: STING-TBK1-IRF3 signaling pathway / ISG genes in mouse primary fibroblasts and macrophages; assay: CHX-induced ISG gene expression in primary cells (RNA-seq, Ribo-seq, qPCR, immunofluorescence); assay type: cell-based
# [5] = test system: 4 mm diameter mouse ear hole; design: species or system mice; conditions: in vivo
# scalded skin = assay: mouse skin scald model; assay type: in vivo, mice; conditions: CHX 20 mg/kg
# [6] = CHX 20 mg/kg, lung function testing
smiles,measurement,setting,value
O=C1N[C@H]2[C@H](O)[C@H](O)[C@@H](O)[C@H](O)[C@@H]2c2cc3c(c(O)c21)OCO3 [Pancratistatin],closure of 2 mm ear hole,[1],completely closed
same,nature of the closure (HE and Masson staining),[1],identified as a regeneration event
same,inhibition of protein translation (Puromycin incorporation),[2],could significantly inhibit the protein translation process
"C[C@@H]1C[C@@H]([C@H](O)CC2CC(=O)NC(=O)C2)C(=O)[C@@H](C)C1 [CHX, 4-((R)-2-((1S,3S,5S)-3,5-dimethyl-2-oxocyclohexyl)-2-hydroxyethyl)piperidine-2,6-dione]",survival rate,"[3]; CHX 20 mg/kg i.p. every two days from 2 days after surgery, 18th day of treatment",75%
same,body weight loss,"[3]; CHX 20 mg/kg, ***P<0.001",significantly inhibited the body weight loss
same,lung fibrosis (HE staining and Sirius red staining),"[3]; CHX 20 mg/kg, after 14 days of treatment",significantly inhibited
same,body weight,"[3]; CHX 20 mg/kg, after 15 days",~85%
same,respiratory rate,[3]; [6],significantly maintained normal
same,tidal volume,[3]; [6],significantly maintained normal
same,tissue integrity and fibrosis (HE staining),[3]; CHX administration started 9 days after bleomycin injury (more severe model),significantly restored tissue integrity and reduced fibrosis
same,"development-related genes (blood vessels, circulatory system), RNA-Seq",[3]; CHX-treated group,upregulated
same,"genes related to respiratory system development, RNA-Seq",[3]; CHX-treated group,promoted the upregulation
same,"fibrosis-related genes (extracellular matrix, collagen), RNA-Seq",[3]; CHX-treated group vs control after injury,significantly downregulate
same,"expression of classical ISGs (Mx2, Ifit1, Cxcl10, Ifih1), qPCR","[4]; CHX, fibroblasts and macrophages",upregulate the expression of classical ISGs
same,"STING-TBK1-IRF3 signaling (perinuclear STING, nuclear IRF3), immunofluorescence","[4]; CHX, in vitro",activated ISGs by activating the STING-TBK1-IRF3 signaling pathway
same,number of genes upregulated at both transcriptional and translational levels in both cell types,"[4]; CHX, mouse primary fibroblasts and macrophages, RNA-seq and Ribo-seq",32 genes
same,wound area of 4 mm ear hole,[5],significantly reduced
same,collagen accumulation (Sirius red staining),scalded skin,reduced collagen accumulation
same,skin tissue regeneration (histochemical staining),scalded skin,"significantly promoted the regeneration of epidermis, hair follicles, glands, dermis, and blood vessels"
same,scar area,scalded skin; after 40 days of administration,significantly reduced scar area
same,HE staining of auricle tissue,[1],healed the tissue after damage and formed granulation tissue
same,HE staining of auricle tissue: healing of trauma,[1],completely healed
same,HE staining of wound site: regenerated tissues,[1],"regeneration of tissues and tissue derivatives such as hair follicles, glands, cartilage, muscles and blood vessels"
same,KI67 immunohistochemical staining of auricle tissue (basal cells),[1],expressed a large amount of KI67
same,closure of 2 mm ear hole wound,[1],completely closed
same,dose dependence of promotion of 2 mm ear hole healing,[1],dose-dependent
same,healing condition of 2 mm ear hole (photograph),[1],completely closed
same,healing effect compared with Ani,[1],better
same,healing effect with different administration manners,[1],healing effects were produced; also recorded: different manners of administration had the effect of promoting regeneration
same,healing of the 2 mm ear hole,[1],significantly promote the healing of the ear hole
same,closure of 2 mm diameter ear holes,[1]; ip,promoted the closure
O=C1N[C@@H]2C(=C[C@H](O)[C@@H](O)[C@H]2O)c2cc3c(c(O)c21)OCO3 [Narciclasine],healing of 2 mm ear holes,[1],significantly promote the healing of 2 mm ear holes
same,regenerated tissues in closed ear holes (histochemical and Masson staining),[1],"could regenerate tissues such as hair follicles, glands, cartilage and muscles, and tissue derivatives"
same,inhibition of protein translation (Puromycin incorporation),[2]; CHX as control,could significantly inhibit the protein translation process
Cc1nn(CC(F)(F)F)cc1Nc1ncc(Br)c(NCc2ccc(S(N)(=O)=O)cc2)n1 [GSK8612],expression of ISG genes induced by CHX,"[4]; GSK8612 5 μM, CHX 1 μg/ml",significantly inhibited the expression of ISG genes
same,CHX-induced ear hole regeneration,[1],significantly inhibited
"COc1ccc(C[C@H]2NC[C@H](O)[C@H]2OC(C)=O)cc1 [Ani, Anisomycin]",healing of the 2 mm ear hole,[1],significantly promote the healing of the ear hole
